Results from paper PMC9820316, “Novel Arylpiperazine Derivatives of Salicylamide with α1-Adrenolytic Properties Showed Antiarrhythmic and Hypotensive Properties in Rats” (International Journal of Molecular Sciences, 2022).
Marks after values point to notes of the source that are not given here.

Legend:
normal ECG in rats = test: Effect on a normal electrocardiogram in rats; format: in vivo, rat; conditions: 5 mg/kg iv; for HR—heart rate / PQ interval / QRS complex / QTc (Bazzett's formula): mean ± SD; for PQ interval / QRS complex / QTc (Bazzett's formula): in ms (unit assumed)
Procedure: The procedure was performed to exclude the negative effects of the tested compounds on the normal ECG, according to the method described earlier. […] Firstly, animals were anesthetized with thiopental (75 mg/kg ip). […] The influence on PQ, QTc interval, QRS complex, and heart rate was evaluated. The Bazzett’s formula: QTc = QT/√RR was used to calculate QTc. All the studied compounds were administered at a dose of 5 mg/kg.

[1] = test system: adrenaline-induced arrhythmia model in rats; test: Prophylactic antiarrhythmic activity in adrenaline-induced arrhythmia; format: in vivo, rat; conditions: for Blocks / Bradycardia / Extrasystoles / Mortality: number of animals with event
Procedure: (§1) The animals were anesthetized with thiopental (75 mg/kg ip). Depending on the model, either adrenaline, aconitine, or calcium chloride was used as an arrhythmogen. Adrenaline and aconitine were administered iv at a dose of 20 µg/kg, whereas calcium chloride was administered at a dose of 140 mg/kg to induce heart rhythm disturbances. The tested compounds were injected iv 15 min before the arrhythmogen. Aspel ASCARD apparatus (standard II lead, with the tape speed 50 mm/s and voltage calibration 1 mV = 1 cm) was used for ECG measurements. […] The ED50 was calculated using the method of Litchfield and Wilcoxon.

[2] = test system: calcium chloride-induced arrhythmia model in rats; test: Prophylactic antiarrhythmic activity in calcium chloride-induced arrhythmia; format: in vivo, rat; conditions: 5 mg/kg iv 15 min before calcium chloride 140 mg/kg; number of animals with event
Procedure: as §1

[3] = test system: pressor response to methoxamine in rats; test: Influence on blood vasopressor response to methoxamine in rats; format: in vivo, rat; conditions: 5 mg/kg iv, methoxamine 150 μg/kg before and 5 min after compound
Procedure: The experiment was performed to establish the effect of the studied derivatives on the pressor response to methoxamine (150 µg/kg, iv), according to the methods described previously. Normotensive Wistar rats were anesthetized with thiopental (75 mg/kg ip). The right carotid artery was cannulated with a polyethylene tube filled with heparin solution using a Datamax apparatus (Columbus Instruments, Columbus, OH, USA). After a 15-min stabilization period, the pressor response to methoxamine before (control) and 5 min after the administration of the tested compounds was measured (Figure 4B). The tested compounds were administered at the lowest hypotensive dose.

normotensive rats = test: Influence on blood pressure in the normotensive rats; format: in vivo, rat; conditions: for DBP—diastolic blood pressure / SBP—systolic blood pressure: mean ± SD
Procedure: The experiment was performed according to the method described earlier. Normotensive Wistar rats were anesthetized with thiopental (75 mg/kg ip). The right carotid artery was cannulated with a polyethylene tube filled with heparin solution, using a Datamax apparatus (Columbus Instruments, Columbus, OH, USA). After 15 min of the stabilization period, the studied compounds were administered iv, and their effect on systolic and diastolic blood pressure was evaluated (Figure 4A).

[4] = test system: aconitine-induced arrhythmia model in rats; test: Prophylactic antiarrhythmic activity in aconitine-induced arrhythmia; format: in vivo, rat; conditions: 5 mg/kg iv 15 min before aconitine 20 μg/kg; number of animals with event
Procedure: as §1

α2-adrenergic receptors = test: α2-adrenoceptor radioligand binding assay ([3H]-clonidine, rat cortex); conditions: rat cortex tissue, mean ± SEM, n.a. = did not bind at 10^−5 M
Procedure: The α1- and α2-adrenoceptor radioligand binding assays were performed on the rat cerebral cortex using previously described methods. […] The brains were homogenized using the ULTRA-TURRAX homogenizer in 10 mL of an ice-cold 50 mM Tris-HCl buffer (pH 7.6). The homogenates were centrifuged at 20,000× g for 20 min (0–4 °C). Subsequently, the cell pellet was resuspended in the Tris–HCl buffer and centrifuged again. Radioligand binding assays were carried out in plates (MultiScreen/Millipore). The final incubation mixture, with a volume of 300 μL, consisted of 240 μL of the tissue suspension, 30 μL of the radioligand solution, and 30 μL of the buffer containing 7–8 concentrations of the studied compounds. In order to measure the unspecific binding, 10 μM phentolamine (for [^3H]-prazosin) or 10 μM clonidine (for [^3H]-clonidine) were utilized. The incubation was completed by rapid filtration through Whatman GF/C filters using a vacuum manifold (Millipore). The filters were then washed twice with the assay buffer and placed in scintillation vials with a liquid scintillation cocktail. Radioactivity was measured in a WALLAC 1409 DSA liquid scintillation counter (Perkin Elmer, USA). All the assays were performed in duplicates, and the inhibitory constants (Ki) were calculated.

[5] = 0 min (prior to administration)
[6] = 0.25 mg/kg iv 15 min before adrenaline 20 μg/kg
[7] = 0.5 mg/kg iv 15 min before adrenaline 20 μg/kg
[8] = 1 mg/kg iv 15 min before adrenaline 20 μg/kg
[9] = 2.5 mg/kg iv, 0 min (before administration)
[10] = 5.0 mg/kg iv, 0 min (before administration)

Cl.NC(=O)c1ccccc1OCCCCCCN1CCN(c2cccc(Cl)c2)CC1 [JJGW03, 2-{6-[4-(3-chlorophenyl)piperazin-1-ylo]hexoxy}benzamide hydrochloride]
effect on the heart rate during the ECG recording (normal ECG in rats): did not affect the heart rate
HR—heart rate (normal ECG in rats; [5]): 286.6 ± 45.7
PQ interval (normal ECG in rats; [5]): 41.6 ± 2.3
QRS complex (normal ECG in rats; [5]): 39.6 ± 4.7
QTc (Bazzett's formula) (normal ECG in rats; [5]): 177.6 ± 12.0
HR—heart rate (normal ECG in rats; 5 min): 289.1 ± 20.2
PQ interval (normal ECG in rats; 5 min): 41.4 ± 1.6
QRS complex (normal ECG in rats; 5 min): 39.3 ± 3.9
QTc (Bazzett's formula) (normal ECG in rats; 5 min): 188.7 ± 16.3
HR—heart rate (normal ECG in rats; 10 min): 279.9 ± 15.7
PQ interval (normal ECG in rats; 10 min): 40.2 ± 1.7
QRS complex (normal ECG in rats; 10 min): 40.8 ± 7.1
QTc (Bazzett's formula) (normal ECG in rats; 10 min): 174.8 ± 7.3
HR—heart rate (normal ECG in rats; 15 min): 271.9 ± 18.2
PQ interval (normal ECG in rats; 15 min): 40.0 ± 0.5
QRS complex (normal ECG in rats; 15 min): 40.4 ± 5.2
QTc (Bazzett's formula) (normal ECG in rats; 15 min): 178.1 ± 15.0
Blocks [1, 6]: 5/5
Bradycardia [1, 6]: 5/5
Extrasystoles [1, 6]: 5/5
Mortality [1, 6]: 4/5
Blocks [1, 7]: 5/5
Bradycardia [1, 7]: 4/5
Extrasystoles [1, 7]: 4/5
Mortality [1, 7]: 4/5
Blocks [1, 8]: 4/5
Bradycardia [1, 8]: 1/5
Extrasystoles [1, 8]: 4/5
Mortality [1, 8]: 0/5
ED50 ([1]; prophylactic, iv 15 min before adrenaline 20 μg/kg, confidence limits in brackets (Litchfield and Wilcoxon)): 0.36 (0.08–1.56) mg/kg
Blocks [2]: 6/6
Bradycardia [2]: 6/6
Extrasystoles [2]: 6/6
Fibrillations [2]: 4/6
Mortality [2]: 5/6
attenuation of the methoxamine pressor response [3]: 99%
DBP—diastolic blood pressure (normotensive rats; [9]): 89.3 ± 15.6 mmHg
SBP—systolic blood pressure (normotensive rats; [9]): 123.8 ± 17.4 mmHg
DBP—diastolic blood pressure (normotensive rats; 2.5 mg/kg iv, 5 min): 83.3 ± 12.8 mmHg
SBP—systolic blood pressure (normotensive rats; 2.5 mg/kg iv, 5 min): 112.5 ± 13.8 mmHg
DBP—diastolic blood pressure (normotensive rats; 2.5 mg/kg iv, 10 min): 84.8 ± 14.7 mmHg
SBP—systolic blood pressure (normotensive rats; 2.5 mg/kg iv, 10 min): 109.8 ± 13.5 mmHg
DBP—diastolic blood pressure (normotensive rats; 2.5 mg/kg iv, 20 min): 86.0 ± 15.8 mmHg
SBP—systolic blood pressure (normotensive rats; 2.5 mg/kg iv, 20 min): 108.8 ± 15.6 mmHg
DBP—diastolic blood pressure (normotensive rats; 2.5 mg/kg iv, 30 min): 85.5 ± 14.7 mmHg
SBP—systolic blood pressure (normotensive rats; 2.5 mg/kg iv, 30 min): 111.8 ± 20.5 mmHg
DBP—diastolic blood pressure (normotensive rats; 2.5 mg/kg iv, 40 min): 83.7 ± 15.6 mmHg
SBP—systolic blood pressure (normotensive rats; 2.5 mg/kg iv, 40 min): 111.2 ± 22.3 mmHg
DBP—diastolic blood pressure (normotensive rats; 2.5 mg/kg iv, 50 min): 81.2 ± 15.0 mmHg
SBP—systolic blood pressure (normotensive rats; 2.5 mg/kg iv, 50 min): 107.7 ± 19.7 mmHg
DBP—diastolic blood pressure (normotensive rats; 2.5 mg/kg iv, 60 min): 79.5 ± 15.4 mmHg
SBP—systolic blood pressure (normotensive rats; 2.5 mg/kg iv, 60 min): 109.2 ± 21.9 mmHg
DBP—diastolic blood pressure (normotensive rats; [10]): 101.5 ± 6.1 mmHg
SBP—systolic blood pressure (normotensive rats; [10]): 128.5 ± 8.6 mmHg
decrease of the diastolic blood pressure (normotensive rats; 5 mg/kg iv, 5th min after administration): 18%
decrease of the diastolic blood pressure (normotensive rats; 5 mg/kg iv, 10th min after administration): 20%
DBP—diastolic blood pressure (normotensive rats; 5.0 mg/kg iv, 5 min): 83.2 ± 5.0 ^a mmHg
SBP—systolic blood pressure (normotensive rats; 5.0 mg/kg iv, 5 min): 108.0 ± 6.6 ^d mmHg
DBP—diastolic blood pressure (normotensive rats; 5.0 mg/kg iv, 10 min): 81.2 ± 4.0 ^a mmHg
SBP—systolic blood pressure (normotensive rats; 5.0 mg/kg iv, 10 min): 104.3 ± 6.3 ^d mmHg
DBP—diastolic blood pressure (normotensive rats; 5.0 mg/kg iv, 20 min): 82.0 ± 4.2 mmHg
SBP—systolic blood pressure (normotensive rats; 5.0 mg/kg iv, 20 min): 101.3 ± 4.5 ^d mmHg
DBP—diastolic blood pressure (normotensive rats; 5.0 mg/kg iv, 30 min): 83.5 ± 4.3 mmHg
SBP—systolic blood pressure (normotensive rats; 5.0 mg/kg iv, 30 min): 102.3 ± 6.9 ^d mmHg
DBP—diastolic blood pressure (normotensive rats; 5.0 mg/kg iv, 40 min): 85.5 ± 5.8 mmHg
SBP—systolic blood pressure (normotensive rats; 5.0 mg/kg iv, 40 min): 104.3 ± 3.9^b mmHg
DBP—diastolic blood pressure (normotensive rats; 5.0 mg/kg iv, 50 min): 86.7 ± 6.0 mmHg
SBP—systolic blood pressure (normotensive rats; 5.0 mg/kg iv, 50 min): 106.0 ± 7.9 ^c mmHg
DBP—diastolic blood pressure (normotensive rats; 5.0 mg/kg iv, 60 min): 87.5 ± 6.3 mmHg
SBP—systolic blood pressure (normotensive rats; 5.0 mg/kg iv, 60 min): 107.3 ± 6.1 ^b mmHg
decrease of the systolic blood pressure (normotensive rats; 5 mg/kg iv, from the 5th to 60th min after administration): 16–21%
Blocks [4]: 6/6
Bradycardia [4]: 6/6
Extrasystoles [4]: 6/6
Fibrillations [4]: 6/6
Mortality [4]: 6/6
Adrenergic Receptors—pKi α2 (α2-adrenergic receptors): 5.76 ± 0.02
